Results on 2 compounds are retold here after patent publication US20250066739A1, “Compositions and Methods for Improving Squamous Epithelial Organoids and Their Production” (The Trustees of Columbia University in the City of New York, priority 2022, published 2025).

In assay [1] the test system is EPC1 and EPC2 hTERT-immortalized normal esophageal keratinocytes. The assay is described as follows: Organoid formation by EPC1/EPC2 esophageal 3D organoids. It is filed as cell-based. As for the experimental part:
(§1) In general, 2×10^4 cells were seeded per well to initiate PDO in 24-well plates, which were pre-warmed to 37° C. 1.4×10^5 cells were transferred into a 1.7-mL tube and centrifuged at 500×g (2,300 rpm on Eppendorf 5424R) for 3 min at room temperature to pellet cells. Cells were resuspended in 350 μL ice-cold MATRIGEL® and 50 μL of the suspension was aliquoted into each well of 24-well plate. The 24-well plate was placed in a CO2 incubator at 37° C. for 30 min to allow the MATRIGEL® to solidify.
(§2) 500 μL of a tumor-type specific organoid medium (see Example 11) was added to each well, and the organoid media was changed every 2 to 3 days. Contamination and organoid growth was monitored under a phase-contrast microscope, and organoids were allowed to grow for 10 to 14 days and then passaged or harvested. If spherical structures were observed but grew slowly, the culturing period was extended for another 7 to 14 days.
To evaluate organoid growth, 3D organoid structures were monitored during culturing, and their size was documented by a conventional phase-contrast inverted microscope or high-throughput cell imaging instruments (e.g., Celigo Image Cytometer, Nexcelom Bioscience) with the capacity of automated multi-well rapid imaging and quantitative analysis of organoid size, number, and structure. Organoids were grown in 24-well or 96-well plates as described above, and phase-contrast images were manually acquired. Using ImageJ software, the diameter of at least 5 organoids per well was measured. The Celigo Image Cytometer was also used to acquire phase-contrast images and calculate mean organoid area for all organoids imaged. Growth curves were subsequently calculated by repeating measurements every other day and plotting organoid diameter or area at each time point.
In order to improve the success rate of creating and subculturing organoids through increasing numbers of passages, alterations to existing media were explored and compared to each other and the HC media described in Driehuis et al., Cancer Discov, 2019; 9:852-71. […]

The subject of another assay is neoplastic PDOs. The assay is described as follows: Growth and formation of neoplastic PDOs. It is filed as cell-based, human. Particulars: FIG. 2. As to the method: as §1, §2
To evaluate organoid growth, 3D organoid structures were monitored during culturing, and their size was documented by a conventional phase-contrast inverted microscope or high-throughput cell imaging instruments (e.g., Celigo Image Cytometer, Nexcelom Bioscience) with the capacity of automated multi-well rapid imaging and quantitative analysis of organoid size, number, and structure. […] Using ImageJ software, the diameter of at least 5 organoids per well was measured. […]

Turning to “EGF: Recombinant human epidermal growth factor (Peprotech, cat. No. AF-100-15) (NSDSECPLSHDGYCLHDGVCMYIEALDKYACNCVVGYIGERCQYRDLKWWELR; Epidermal growth factor; UniProt P01133 971-1023, looked up)”, the “organoid formation and structure” value in assay [1] (effect of EGF concentration, esophageal 3D organoids, FIG. 1) was “influences organoid formation and structure”. Besides, in assay [1] (low EGF concentration, FIG. 1), the squamous-cell differentiation gradient result is “more closely recapitulates a normal squamous-cell differentiation gradient”. Besides, in the assay on neoplastic PDOs, the “growth and formation of neoplastic PDOs” value is on record as “may stimulate growth, if not formation”.

On to `Cc1cccc(-c2nn(C(=S)Nc3ccccc3)cc2-c2ccnc3ccccc23)n1` [A83-01, reference compound], for which, in assay [1] (medium lacking A83-01 (ΔA), FIG. 5), the “EPC1/EPC2 organoid growth in HOME50 devoid of A83-01” value is “did not grow”.
